{"source": "paper PMC5882164", "about": "“A novel calcimimetic agent, evocalcet (MT-4580/KHK7580), suppresses the parathyroid cell function with little effect on the gastrointestinal tract or CYP isozymes in vivo and in vitro” (PLoS ONE, 2018)", "key": {"[1]": {"settings": "rats; no reference given; cited from earlier work"}, "emesis": {"tested_on": "emesis", "settings": "common marmoset, in vivo, 4 h", "method": "The study of effect of evocalcet on emesis in common marmoset was performed by referencing a previously reported method. The marmosets (n = 24) used for this study were housed in cages (460 × 600 × 655 mm) with environmental enrichments (wooden perches, swing, and balls) and acclimated for at least 4 weeks. The marmosets were fasted from evening on the day before administration. To confirm the reduction in the serum PTH levels, blood samples (about 300~400 μL, 1.2∼1.6% of total blood volume) were collected from the femoral or saphenous vein without an anesthesia before and at 1 and 4 h after the oral administration of evocalcet (1.5 or 5 μg/kg, n = 3 in each dose) or cinacalcet (300 or 500 μg/kg, n = 3 in each dose) suspended in 0.5% methyl cellulose solution using a metallic gastric zonde. The serum PTH level was measured using a Porcine Intact PTH ELISA kit (Immutopics, Inc., San Clemente, CA, USA). To evaluate the emetic effects in marmosets, evocalcet (50 or 150 μg/kg) or cinacalcet (1500 or 5000 μg/kg) was orally administered (n = 6/drug, dose down titration, n = 12 in total). The observation of emesis was conducted until 4 h after the administration."}}, "note": "Where a name gives a salt, the structure may show the parent alone.", "data": [{"smiles": "C[C@@H](NCCCc1cccc(C(F)(F)F)c1)c1cccc2ccccc12", "note": "[cinacalcet, Cinacalcet hydrochloride, reference compound]", "values": [{"measurement": "bioavailability", "setting": "[1]", "result": "1%-2%"}, {"measurement": "Safety margin", "setting": "emesis", "result": "3 < X < 10"}]}]}
